{
  "source": "paper PMC9995905",
  "about": "“Characteristics of antimicrobial peptide OaBac5mini and its bactericidal mechanism against Escherichia coli” (Frontiers in Veterinary Science, 2023)",
  "key": {"E. coli ATCC 25922 [1]": {"tested_on": "E. coli ATCC 25922", "assay": "microbe, parasite or virus in culture", "details": "ATCC 25922", "description": "(§1) MICs of OaBac5mini, amoxicillin, kanamycin, florfenicol and tetracycline were determined using the two-fold broth microdilution method according to the Clinical and Laboratory Standards Institute (CLSI) guidance ([21]). MIC values of the tested antibacterial agents were determined on three independent occasions. Escherichia coli ATCC 25922 was used as the quality control in all the susceptibility tests."}, "S. aureus ATCC 25923": {"tested_on": "S. aureus ATCC 25923", "assay": "microbe, parasite or virus in culture", "details": "ATCC 25923", "description": "as §1"}, "E. coli ATCC 25922 ΔsbmA": {"tested_on": "E. coli ATCC 25922 ΔsbmA", "details": "two-fold broth microdilution, CLSI; three independent occasions; sbmA deletion mutant", "description": "The method described by Datsenko and Wanner was used for chromosomal gene deletion ([20]). […] The PCR fragment (1,567 bp) was purified, digested with DpnI, repurified and transferred into E. coli ATCC 25922 by electroporation, in which the Red recombinase expression plasmid pKD46 was previously transformed and induced by L-arabinose. Transformants were selected on Luria-Bertani (LB) agar containing 50 μg/ml of kanamycin at 37°C. The inserted sequence was amplified from the kanamycin-resistant strains by using the primers SBMF: 5′-[…]-3′ and SBMR: 5′-[…]-3′ which is located outside of inactivated gene. The length of the PCR product of sbmA using the primers set SBMF and SBMR in E. coli ATCC 25922 is 1,404 bp. When sbmA is successfully inactivated, the PCR product (2,198 bp) was amplified and sequenced for the verification of the gene deletion.\nas §1"}, "E. coli ATCC 25922 [2]": {"tested_on": "E. coli ATCC 25922", "type": "cell-based, Escherichia coli"}, "E. coli ATCC 25922 [3]": {"tested_on": "E. coli ATCC 25922", "assay": "Sensitivity to pH, temperature and repeated freeze-thawing (inhibition zone assay)", "type": "physicochemical, Escherichia coli", "details": "50 μg/ml, inhibition zone assay against E. coli ATCC 25922, repeated three times", "description": "The sensitivities of OaBac5mini to different pH, temperature, digestive enzymes, and repeated freeze-thawing conditions were determined using the inhibition zone assay as previously described ([23]). For pH sensitivity, OaBac5mini was diluted with each solution whose pH was individually adjusted to 2, 3, 4, 5, 6, 7, 8, 9, 10, 11 with HCl or NaOH, and incubated for 2 h, followed by adjusting the pH to 7 to end the reaction. For temperature sensitivity, the diluted peptide was incubated at 30, 40, 50, 60, 70, 80, 90, and 100°C for 30 min. To determine the digestive enzymes sensitivity, OaBac5mini was incubated with 100 μg/ml pepsin (in pH 2 sterile water, sigma, USA), 5–100 μg/ml trypsin (in pH 6.8 KH2PO4 buffer, sigma, USA) and 100 μg/ml protease K (Solarbio, China) at 37°C for 3 h, respectively. To end the reaction after incubation, the pepsin buffer was adjusted to pH 8, the trypsin solution and protease K solution were incubated at 95°C for 10 min. For repeated freeze-thawing sensitivity, OaBac5mini was frozen and then thawed at room temperature 0–12 times. All the final concentrations of OaBac5mini in sensitivity tests were 50 μg/ml. All experiments were repeated three times."}, "pepsin": {"biological_target": "T1, pepsin (Sus scrofa, UniProt P00791)", "T1 construct": "purchased sigma, USA", "T1 sequence (P00791 60-385)": "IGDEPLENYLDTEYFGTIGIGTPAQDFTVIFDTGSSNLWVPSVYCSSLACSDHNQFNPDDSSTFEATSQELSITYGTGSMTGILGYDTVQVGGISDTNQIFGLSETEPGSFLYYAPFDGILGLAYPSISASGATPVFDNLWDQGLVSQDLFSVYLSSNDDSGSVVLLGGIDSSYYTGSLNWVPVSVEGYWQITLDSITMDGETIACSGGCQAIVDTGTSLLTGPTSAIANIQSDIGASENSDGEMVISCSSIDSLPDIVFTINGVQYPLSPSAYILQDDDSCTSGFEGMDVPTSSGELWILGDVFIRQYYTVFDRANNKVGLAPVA", "assay": "Digestive enzyme sensitivity (inhibition zone assay)", "type": "in vitro ADME", "details": "100 μg/ml pepsin in pH 2 sterile water, 37°C, 3 h; 50 μg/ml peptide; inhibition zone assay against E. coli ATCC 25922; repeated three times", "description": "(§2) All experiments were repeated three times."}, "proteinase K": {"biological_target": "T2, proteinase K (Parengyodontium album, UniProt P06873)", "T2 construct": "purchased Solarbio, China", "T2 sequence (P06873 106-384)": "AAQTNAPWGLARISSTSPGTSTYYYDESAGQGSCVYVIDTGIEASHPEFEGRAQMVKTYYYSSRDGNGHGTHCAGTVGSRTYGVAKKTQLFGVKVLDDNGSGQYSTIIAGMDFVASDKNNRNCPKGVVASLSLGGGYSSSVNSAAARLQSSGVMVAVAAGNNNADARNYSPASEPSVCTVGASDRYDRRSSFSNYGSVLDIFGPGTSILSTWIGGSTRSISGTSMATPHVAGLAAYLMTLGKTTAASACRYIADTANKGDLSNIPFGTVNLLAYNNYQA", "assay": "Digestive enzyme sensitivity (inhibition zone assay)", "type": "in vitro ADME", "details": "100 μg/ml protease K, 37°C, 3 h; 50 μg/ml peptide; inhibition zone assay against E. coli ATCC 25922; repeated three times", "description": "as §2"}, "IPEC-J2 cells": {"tested_on": "IPEC-J2 cells", "type": "cell-based, porcine", "description": "The cells were maintained in CO2 incubator (Galaxy R, RS Biotech, Scotland) with 5% CO2 at 37°C. Real time cellular analysis (RTCA) was used to evaluate the proliferation and viability of IPEC-J2 cells. […] Real time cellular analysis was monitored using xCELLigence RTCA DP system (xCELLigence, ACEA biosciences, USA) for 100 h at 15 min intervals. The cell index was normalized by RTCA software 2.0 (xCELLigence, ACEA biosciences, USA)."}, "E. coli ATCC 25922 [4]": {"tested_on": "E. coli ATCC 25922", "assay": "Integrity of the inner membrane (DiSC3(5))", "type": "cell-based, Escherichia coli", "details": "25, 50, 100 and 200 μg/ml; 1 μM DiSC3(5); within 30 min; P < 0.05; n = 3", "description": "If the membrane is depolarized or disrupted, DiSC3(5) is released into the aqueous medium and leads to increased fluorescence. The DiSC3(5) assay was conducted following the instruction of Sautrey et al. ([26]) with minor modifications. […] Fluorescence units were investigated immediately using INFINITE 200 PRO (Infinite® 2000, TECAN, Austria) at the excitation wavelength of 620 nm and emission wavelength of 670 nm for 30 min at 1 min intervals. Triple experiments were conducted with three individual clones of E. coli ATCC 25922."}, "Gram-negative bacteria": {"tested_on": "Gram-negative bacteria", "details": "cited from earlier work", "description": "(§3) Antimicrobial peptides (AMPs) are small molecular peptides in living organisms and serve as natural barriers against the invasion of pathogenic microorganisms ([5]). They are often referred to as cationic host defense peptides (HDPs) or cationic antimicrobial peptides (CAMPs) ([6]). Cathelicidins are one of the best characterized AMP families. Each cathelicidin includes an N-terminal signal domain, a cathelin-like domain, and an antimicrobial C-terminal domain ([7]). Among them, the proline-rich antibacterial peptides (PrAMPs) have been attracting the close attention of researchers due to thei ..."}, "[5]": {"tested_on": "Gram-positive bacteria and C. albicans", "details": "cited from earlier work", "description": "as §3"}, "E. coli O157:H7": {"tested_on": "E. coli O157:H7", "details": "cited from earlier work", "description": "Salt ions in serum are important factors affecting the antibacterial activity of AMPs in vivo because they can bind to the negatively charged groups of lipopolysaccharide (LPS), a monolayer molecule on the outer membrane of Gram-negative bacteria ([29]). […] But in the presence of physiological concentrations of CaCl2, the MIC of OaBac5mini increased four-fold and attained 100 μg/ml (Table 2). It has been reported that the ..."}},
  "note": "“Also recorded” adds a separate entry of the source. Where no end group is shown, it is not given here.",
  "data": [
    {"sequence": "RFRPPIRRPPIRPPFRPPFRPPVR [OaBac5mini]", "values": [
      {"measurement": "MIC against E. coli ATCC 25922", "setting": "E. coli ATCC 25922 [1]", "value": 25, "unit": "mg/L"},
      {"measurement": "MIC against S. aureus ATCC 25923", "setting": "S. aureus ATCC 25923", "value": ">250", "unit": "mg/L"},
      {"measurement": "MIC against E. coli ATCC 25922 ΔsbmA", "setting": "E. coli ATCC 25922 ΔsbmA", "value": 100, "unit": "mg/L"},
      {"measurement": "Increase of MIC in the presence of physiological concentration of CaCl2", "setting": "E. coli ATCC 25922 [2]; 2.5 mM CaCl2 versus MH broth alone, E. coli ATCC 25922", "value": "four-fold"},
      {"measurement": "MIC against E. coli ATCC 25922 in MH broth", "setting": "E. coli ATCC 25922 [2]; ATCC 25922", "value": 25, "unit": "mg/L"},
      {"measurement": "MIC against E. coli ATCC 25922 in MH broth + CaCl2", "setting": "E. coli ATCC 25922 [2]; ATCC 25922", "value": 100, "unit": "mg/L"},
      {"measurement": "MIC against E. coli ATCC 25922 in MH broth + FeCl3", "setting": "E. coli ATCC 25922 [2]; ATCC 25922", "value": 16.67, "unit": "mg/L"},
      {"measurement": "MIC against E. coli ATCC 25922 in MH broth + KCl", "setting": "E. coli ATCC 25922 [2]; ATCC 25922", "value": 20.83, "unit": "mg/L"},
      {"measurement": "MIC against E. coli ATCC 25922 in MH broth + MgCl2", "setting": "E. coli ATCC 25922 [2]; ATCC 25922", "value": 50, "unit": "mg/L"},
      {"measurement": "MIC against E. coli ATCC 25922 in MH broth + NH4Cl", "setting": "E. coli ATCC 25922 [2]; ATCC 25922", "value": 12.5, "unit": "mg/L"},
      {"measurement": "MIC against E. coli ATCC 25922 in MH broth + NaCl", "setting": "E. coli ATCC 25922 [2]; ATCC 25922", "value": 33.33, "unit": "mg/L"},
      {"measurement": "Antibacterial activity after treatment at high temperature", "setting": "E. coli ATCC 25922 [3]; 30-100°C for 30 min", "value": "stable antibacterial activity"},
      {"measurement": "Antibacterial activity after repeated freeze-thawing", "setting": "E. coli ATCC 25922 [3]; frozen and thawed at room temperature 0-12 times", "value": "stable antibacterial activity"},
      {"measurement": "Antibacterial activity after treatment at different pH", "setting": "E. coli ATCC 25922 [3]; pH 2-11 (HCl or NaOH), 2 h, then adjusted to pH 7", "value": "stable antibacterial activity; also recorded: not significantly affected"},
      {"measurement": "Antibacterial activity after treatment with pepsin", "setting": "pepsin", "value": "stable antibacterial activity; also recorded: not significantly affected"},
      {"measurement": "Antibacterial activity after treatment with proteinase K", "setting": "proteinase K", "value": "stable antibacterial activity; also recorded: no significant effect"},
      {"measurement": "Cell indexes of IPEC-J2 cells at 400 μg/ml compared to the control group", "setting": "IPEC-J2 cells", "value": "didn't change significantly"},
      {"measurement": "Cell indexes of treated IPEC-J2 cells compared with the control group", "setting": "IPEC-J2 cells", "value": "significant increase"},
      {"measurement": "Average fluorescence intensity of DiSC3(5) (inner membrane integrity)", "setting": "E. coli ATCC 25922 [4]", "value": "significantly increased"},
      {"measurement": "MICs against Gram-negative bacteria", "setting": "Gram-negative bacteria", "value": "0.125 to 8", "unit": "µg/mL"},
      {"measurement": "MICs against Gram-positive bacteria and C. albicans", "setting": "[5]", "value": "16 to 64", "unit": "µg/mL"},
      {"measurement": "MIC against E. coli O157:H7 in the presence of 100 mM NaCl", "setting": "E. coli O157:H7", "value": "about 30 μg/ml"}
    ]}
  ]
}
